Experimental data taken from patent publication US4515811A, “Process for the resolution of d,1 2-(6-methoxy-2-naphthyl)propionic acid” (Syntex Corporation, priority 1980, dated 1985).
Counter-ions that a name gives are not always drawn. Like-named read-outs stand apart in the source and are kept apart here.

Columns and labels:
[1] = system: carrageenin-induced paw inflammation in the rat; details: female rats, relative to phenylbutazone = 1, molar basis
Experimental: The anti-inflammatory activity of each of the compounds listed below is compared with the activity of phenylbutazone by means of the carrageenin-induced rat paw inflammation test described below.
TEST FOR ANTI-INFLAMMATORY ACTIVITY UTILIZING CARRAGEENIN-INDUCED PAW INFLAMMATION IN THE RAT
Materials and Methods--Female rats weighing 80-90 grams are used. The test materials are given at hour 0 orally by gavage in 1 ml. aqueous vehicle. At hour 1, 0.05 ml. of a 1% solution (in 0.9% NaCl) of carrageenin is injected into the right hind paw. This injection causes an inflammation of the paw. The rats are sacrificed at hour 4, at which time both hind paws are removed and weighed separately.
End point: % increase in paw size calculated as follows: [formula]

[2] = Solubility of resolving agent in water; assay type: physicochemical
[3] = Example 33, test of Example 32 repeated, oral
[4] = Example 32, oral gavage at hour 0, carrageenin at hour 1, sacrificed hour 4

| SMILES | Oral Anti-Inflammatory Activity (on a molar equivalent basis) (Phenylbutazone = 1) [1, 4] | also measured |
| --- | --- | --- |
| COc1ccc2cc([C@H](C)C(=O)O)ccc2c1 [N-cyclopropyl-D-glucamine salt of d 2-(6-methoxy-2-naphthyl)] [N-cyclopropyl-D-glucamine salt of d 2-(6-methoxy-2-naphthyl)propionic acid] | – | Oral Anti-Inflammatory Activity (on a molar equivalent basis) (Phenylbutazone = 1) [1, 3]: 9 |
| COc1ccc2cc([C@H](C)C(=O)O)ccc2c1 [N-n-octyl-D-glucamine salt of d 2-(6-methoxy-2-naphthyl)prop] [N-n-octyl-D-glucamine salt of d 2-(6-methoxy-2-naphthyl)propionic acid] | 17 | – |
| COc1ccc2cc([C@H](C)C(=O)O)ccc2c1 [N-cyclohexyl-D-glucamine salt of d 2-(6-methoxy-2-naphthyl)p] [N-cyclohexyl-D-glucamine salt of d 2-(6-methoxy-2-naphthyl)propionic acid] | 11 | – |
| CCCCCCCCNC[C@H](O)[C@@H](O)[C@H](O)[C@H](O)CO [N-n-octyl-D-glucamine] | – | solubility in water (in words) [2]: substantially insoluble in water |
| COc1ccc2cc([C@H](C)C(=O)O)ccc2c1 [N-ethyl-D-glucamine salt of d 2-(6-methoxy-2-naphthyl)propio] [N-ethyl-D-glucamine salt of d 2-(6-methoxy-2-naphthyl)propionic acid] | 17 | – |
| COc1ccc2cc([C@H](C)C(=O)O)ccc2c1 [N-n-butyl-D-glucamine salt of d 2-(6-methoxy-2-naphthyl)prop] [N-n-butyl-D-glucamine salt of d 2-(6-methoxy-2-naphthyl)propionic acid] | 5 | – |
| COc1ccc2cc([C@H](C)C(=O)O)ccc2c1 [N-n-propyl-D-glucamine salt of d 2-(6-methoxy-2-naphthyl)pro] [N-n-propyl-D-glucamine salt of d 2-(6-methoxy-2-naphthyl)propionic acid] | 20 | – |
| COc1ccc2cc([C@H](C)C(=O)O)ccc2c1 [N-n-octadecyl-D-glucamine salt of d 2-(6-methoxy-2-naphthyl)] [N-n-octadecyl-D-glucamine salt of d 2-(6-methoxy-2-naphthyl)propionic acid] | 7 | – |
| COc1ccc2cc([C@H](C)C(=O)O)ccc2c1 [N-cyclooctyl-D-glucamine salt of d 2-(6-methoxy-2-naphthyl)p] [N-cyclooctyl-D-glucamine salt of d 2-(6-methoxy-2-naphthyl)propionic acid] | – | Oral Anti-Inflammatory Activity (on a molar equivalent basis) (Phenylbutazone = 1) [1, 3]: 20 |
